Measurements: patent EP0336958B1, “PRODUCT CONTAINING AS ACTIVE PRINCIPLES: A) A PEPTIDE HAVING AN ACTIVITY OF THE TYPE OF THAT OF HUMAN GAMMA INTERFERON, B) HYDROXYUREA” (priority 1987, dated 1989)

System: cellules HL-60
Conditions: hydroxyurée alone, 150 uM

## NC(=O)NO [hydroxyurée]
  inhibition de la croissance des cellules HL-60: inhibition suffisante de la croissance des cellules HL-60
